We go through 18 compounds from patent US11123279B2, “Cosmetic composition and the use thereof for regulating skin quality” (priority 2016, dated 2021).

Converted amounts (≈) assume the structure as drawn. Read-outs that look alike come from different tables or passages of the source.

The test system of series [1] is B16 melanocyte cells. Kind of series: B16 cell melanogenesis inhibition assay. Type of series: cell-based.
In series [2] the test system is arm skin of Southeast Asian women. The note with it: in vivo. The text has this:
The cream base used for blending the active ingredients contained the ingredients as follows: Aqua, Butyrospermum parkii, caprylic/capric triglyceride, C12-15 alkyl benzoate, cetearyl isononanoate, cyclomethicone, butylene glycol, hydroxyethyl acrylate, sodium dimethyl taurate copolymer, Aloe barbadensis leaf juice.

Series [3] relates to B16 melanocyte cells. The method, then:
Cytotoxicity activities to determine cell viability were obtained as follows. B16 melanocyte cells were plated in a 24 well-plate one day before the actual assay. Fresh DMEM (with phenol red) containing 10% FBS was added to dilute the cells to an appropriate density, 0.025×10^6 cells for a 24 well-plate. 1 ml of the DMEM with 10% FBS was added to each well. […] The well-plate with treated cells were then left in the incubator at 37° C., 5% CO2 for approximately 16 hours overnight. The media was removed and 1 ml of PBS solution was added into each well to wash and remove the colour of the phenol red in the DMEM. Then, 1 ml of fresh PBS was added into each individual well. 15 μl of the prepared Resazurin stock solution was added (8 μg/ml) into each well containing the compounds. The Resazurin stock solution was prepared by adding 800 μg of Resazurin sodium salt in 10 ml of PBS (pH 7.4) to make a concentration of 80 μg/ml, which was further diluted by adding 0.1 ml of the 80 μg/ml solution to 0.9 ml of PBS to make 8 μg/ml of stock solution. The well-plates were incubated at 37° C. for 2 hours. The plate was immediately read, after 2 hours, using a BioTek Synergy HTX multi-mode reader at an emission and excitation wavelength of 600 nm and 528 nm respectively, with a gain of 35. The results were automatically recorded in an excel spreadsheet.

For the next series, the system named is Pseudomonas aeruginosa. Kind of series: Antimicrobial activity, resistance of cream to microbial contamination. Type of series: cell-based. The settings on record: tested individually at 0.05%.
In series [4] the test system is arm skin of Southeast Asian women. Kind of series: Subject self-assessment questionnaire and preference in the skin lightening study (Example 1). The settings on record: by day 14 of the trial. It counts as in vivo, human. The text has this: Table V illustrates the ranking of the various compositions from best to worst based on user satisfaction measurements. The questionnaire was formulated to include the questions such as: 1) what were your first impressions after application of the various compositions? 2) How quickly do you expect to see a lightening effect? 3) Are you satisfied with the quality of skin lightening achieved? 4) How many days after the first application of the various compositions did you observe a lightening effect? 5) are you satisfied with the quality of skin lightening achieved? 6) How many days after the first application of the test product did you observe a lightening effect?

The subject of a further series is Indian and Chinese skins. Kind of series: Skin tone (a*, b*) and general skin quality observation (Examples 5 and 6). It counts as in vivo, human. The settings on record: Chinese skin and especially Indian skin. As for the experimental part:
[…]. The a* (rosy-red tone) and b* (yellow tone) components of the skin tone were monitored.
Over the 28-day period, the a* (rosy-red tone) component of Indian skin increased, and the b* (yellow tone) component of Indian and Chinese skins decreased. […] Before starting the study, all subjects' melanin index, L*a*b* and ITA value were measured at the tested site using Mexameter MX18 and Courage+Khazaka (CK) Colorimeter CL 400. Photos and instrument measurements were taken at the start of the testing (Day 0), during the testing (D2, D5, D7, D9, D12) and after the testing (D14, D21 and D28). […] Each subject applied 5 products on the left arm. Subjects wore an arm sleeve over part of the right arm for the occluded site, so as to provide 2 negative controls, one occluded from light and UV-radiation (right arm) and one covered under fabric (left arm) so as to understand the effect of melanogenesis even when no light is passing through. The tested areas were evaluated on their skin melanin index, L*a*b* and ITA after D2, D5, D7, D9, D12, D14, D21 and D28 of application using Mexameter MX 18 and CK Colorimeter CL400.
As part of the same experiment above, general skin quality effects were also observed.

The nature of series [5]: Viscosity measurement of creams. The note with it: 0.5 wt % in base cream of 25,000 mPa·s. It counts as physicochemical. As for the experimental part: Rheological properties of the creams with different cosmetic compositions were evaluated based on viscosity measurements. The individually tested samples were dissolved in a base cream (control) with a viscosity of 25,000 mPa·s. The cream base used for blending the active ingredients contained the ingredients as follows: Aqua, Butyrospermum parkii, caprylic/capric triglyceride, C12-15 alkyl benzoate, cetearyl isononanoate, cyclomethicone, butylene glycol, hydroxyethyl acrylate, sodium dimethyl taurate copolymer, Aloe barbadensis leaf juice. The cream base was white in colour, with a pH ranges between 4.5 and 5.5.

[6] abbreviates: Melanocyte, 72 h, B16 cultured melanocyte cells, 3 days incubation, melanin OD at 480 nm; read-out: IC50, melanogenesis inhibition.
The mark [7] stands for this setting: B16 cultured melanocyte cells, 3 days incubation, melanin OD at 480 nm.
The mark [8] stands for this setting: Melanocyte, 72 h; read-out: IC50, melanogenesis inhibition.

Consider `O=c1cc(CO)occ1O` [Kojic acid (Standard), Kojic acid, reference compound], for which the IC50 with B16 melanocyte cells [1] (setting [6]) is 51 µg/mL (≈ 359 µM). With `Cc1occc(=O)c1O` [Maltol, 3-hydroxy-2-methyl-4H-pyran-4-one], in series [2], the “cytotoxic activities on intact human skin” value is on record as “no real cytotoxic activities”. In addition, in the series on B16 melanocyte cells [1] (setting [6]), the half-inhibitory concentration (IC50) was 65 µg/mL (≈ 515 µM). The “cytotoxic activities on B16 cells” value in the series with B16 melanocyte cells [3] is reported as “no real cytotoxic activities”. Moreover, the “inhibition of the growth of P. aeruginosa” value in the series with Pseudomonas aeruginosa is listed as “completely inhibited”.

On to `O=C1NC(=O)c2ccccc21` [Phthalimide], for which the half-inhibitory concentration (IC50) with B16 melanocyte cells [1] (setting [6]) came to 89 µg/mL (≈ 605 µM). As for `NC(=O)c1cccnc1` [niacinamide], the “subjects who observed and reported lightening of their skin” value in series [4] stood at 82%. The “effects on a* and b* skin tone compared with the maltol/saccharin cream” value in the series on Indian and Chinese skins is reported as “diametrically opposite effects”.

Take `O=c1cc[nH]c(=O)[nH]1` [Uracil]: in the series on B16 melanocyte cells [1] (setting [6]), the concentration for half-maximal inhibition (IC50) is 143 µg/mL (≈ 1280 µM). Still for that read-out and setting: the figure for `O=C1O[C@H]([C@H](O)CO)C(O)=C1O` [Erythorbic Acid] is 73 µg/mL (≈ 414 µM). As for `CCc1occc(=O)c1O` [Ethyl Maltol], in the series with B16 melanocyte cells [1] (setting [7]), the “IC50, melanogenesis inhibition” value is 59 µg/mL (≈ 421 µM). The IC50 in the series on B16 melanocyte cells [1] (setting [6]) lay within 59 to 262 µg/mL (≈ 421 to 1870 µM). In the series on B16 melanocyte cells [3] (mouse), the “concentrations resulting in cell toxicity” value is “greater than 100 μM”. Consider `CC1=CC(=O)[N-]S(=O)(=O)O1.[K+]` [Acesulphame K (ASK), Acesulphame K (Potassium Acesulphame)], for which the IC50 in the series with B16 melanocyte cells [1] (Melanocyte, 72 h, read-out: IC50, melanogenesis inhibition) worked out at 58 µg/mL. Consider `Nc1nc2c(ncn2[C@@H]2O[C@H](COP(=O)(O)O)[C@@H](O)[C@H]2O)c(=O)[nH]1` [Guanosine Monophosphate, Guanosine Mono- phosphate], for which the IC50 with B16 melanocyte cells [1] (setting [6]) is 70 µg/mL. In the case of `CC(=O)Oc1ccccc1C(=O)O` [Acetylsalicylic Acid, Acetyl Salicylic Acid], the “IC50, melanogenesis inhibition” value with B16 melanocyte cells [1] (setting [7]) was determined as 262 µg/mL (≈ 1450 µM).

As for `O=C(O)c1cc(O)[nH]c(=O)c1` [Citrazinic Acid, Citrazinic acid], the “IC50, melanogenesis inhibition” value in the series with B16 melanocyte cells [1] (setting [7]) stood at 77 µg/mL (≈ 496 µM). Further, the IC50 with B16 melanocyte cells [1] (setting [6]) is 59 to 262 µg/mL (≈ 380 to 1690 µM). Turning to `O=C1O[C@H]([C@@H](O)CO)C(O)=C1O[C@H]1O[C@H](CO)[C@@H](O)[C@H](O)[C@H]1O` [ascorbic acid-2-glucoside (AA2G), ascorbic acid-2-glucoside], the “viscosity of the cream” value in series [5] is 26,000 mPa·s.

Take `O=c1[nH]cnc2[nH]cnc12` [Hypoxanthine]: the IC50 in the series on B16 melanocyte cells [1] (setting [6]) came out at 70 µg/mL (≈ 514 µM). On the same count and under the same terms, the result for `Cn1cnc2c1c(=O)[nH]c(=O)n2C` [Theobromine] reads 37 µg/mL (≈ 205 µM). Turning to `O=C1NS(=O)(=O)c2ccccc21` [Saccharin, 2H-1lamda 6,2-benzothiazol-1,1,3-trione], in the series on B16 melanocyte cells [3], the “cytotoxic activities on B16 cells” value is “no real cytotoxic activities”.

Consider `O=c1[nH]c2ccccc2c(=O)o1` [Isatoic Anhydride], for which, in the series on B16 melanocyte cells [1] (setting [8]), the IC50 was found to be 132 µg/mL (≈ 809 µM). Still for that read-out and setting: the result for `Nc1nc2[nH]cnc2c(=O)[nH]1` [Guanine] reads 56 µg/mL (≈ 371 µM).

“Dehydroacetic Acid [Dehydroacetic Acid (DHAA)]”: the “IC50, melanogenesis inhibition” value in the series with B16 melanocyte cells [1] turned out to be 73 µg/mL.

In general, IC50 refers to the concentration at which inhibition is half-maximal.
